According to patent publication US9068080B2, “Merocyanine derivatives” (BASF SE, priority 2006, dated 2015):

Test: UV absorption spectrum (λmax, ε) of the merocyanine UV filters
Type: physicochemical

In the case of `CN(/C=C/C=C(C#N)C#N)CCC[Si]1(C)O[Si](C)(CCCN(C)/C=C/C=C(C#N)C#N)O[Si](C)(CCCN(C)/C=C/C=C(C#N)C#N)O[Si](C)(CCCN(C)/C=C/C=C(C#N)C#N)O1` (stereo not shown) [MC 15], the “UV λmax” value (in CH3CN/H2O) is reported as 378 nm.

For `CC1(C)CC(NCCC[Si](C)(O[Si](C)(C)C)O[Si](C)(C)C)=CC(=C(C#N)C#N)C1` [MC 07], the “UV λmax” value (in CH3CN/H2O) was 382 nm, the “UV λmax” value (in EtOH) was 381 nm and the “ε (molar extinction at λmax)” value (in EtOH) was 52829.

In the case of `CN(/C=C/C=C(C#N)C#N)CCC[Si](C)(O[Si](C)(C)C)O[Si](C)(C)C` [MC 14], the “UV λmax” value (in CH3CN/H2O) is reported as 383 nm.

With `CCOC(=O)/C(C#N)=C\C=C\N(C)CCC[Si]1(C)O[Si](C)(CCCN(C)/C=C/C=C(/C#N)C(=O)OCC)O[Si](C)(CCCN(C)/C=C/C=C(/C#N)C(=O)OCC)O[Si](C)(CCCN(C)/C=C/C=C(/C#N)C(=O)OCC)O1` (stereo not shown) [MC 12] the “UV λmax” value (in CH3CN/H2O) was 381 nm.

For `CCOC(=O)/C(C#N)=C1\C=C(NCCC[Si](C)(O[Si](C)(C)C)O[Si](C)(C)C)CC(C)(C)C1` [MC 08], the “UV λmax” value (in EtOH) was 388 nm and the “ε (molar extinction at λmax)” value (in EtOH) was 50383.

With `CCOC(=O)/C(C#N)=C1/C=C(NCCC[Si]2(C)O[Si](C)(CCCNC3=C/C(=C(\C#N)C(=O)OCC)CC(C)(C)C3)O[Si](C)(CCCNC3=C/C(=C(\C#N)C(=O)OCC)CC(C)(C)C3)O[Si](C)(CCCNC3=C/C(=C(\C#N)C(=O)OCC)CC(C)(C)C3)O2)CC(C)(C)C1` (stereo not shown) [MC 11] the “UV λmax” value (in EtOH) was 388 nm and the “ε (molar extinction at λmax)” value (in EtOH) was 181817.

With `CCOC(=O)/C(C#N)=C\C=C\N(C)CCC[Si](C)(O[Si](C)(C)C)O[Si](C)(C)C` [MC 13] the “UV λmax” value (in CH3CN/H2O) was 381 nm, the “UV λmax” value (in EtOH) was 380 nm and the “ε (molar extinction at λmax)” value (in EtOH) was 69116.
